Assay results: US20250313544A1, “INHIBITORS OF GLUTATHIONE S-TRANSFERASE ZETA 1 (GSTZ1) AND METHODS OF USE” (H. LEE MOFFITT CANCER CENTER AND RESEARCH INSTITUTE, INC., priority 2022, published 2025)

Assays:
[1] = test system: HCC366 cells harboring mutated DDR2; experiment: Cell viability assay (CellTiter-Glo) in HCC366 cells; assay type: cell-based, human; details: probe combined with dasatinib in HCC366 cells, dose of 10 μM (FIG. 9F)
Method: (§1) Cells were seeded in Corning 384-well black walled/clear bottom microplates with a density of 1,000 cells/well and treated with indicated drugs and concentrations following cell attachment for 24 h. After 72 h or 96 h, as indicated, cell viability was evaluated with CellTiter-Glo (Promega, Madison, WI) according to manufacturer's recommendations. An M5 Spectramax plate reader (Molecular devices) was used to read the plates with 500 ms integration. Data was processed and analyzed using Excel and GraphPad Prism 9.0.

GSTZ1 = biological target: T1, GSTZ1 (Homo sapiens, UniProt O43708); experiment: GSTZ1 enzymatic activity assay (CNBF-GSH adduct absorbance at 420 nm); assay type: biochemical; set-up: dose or concentration left out as unconfirmed; details: without UV irradiation, 10 mins, room temperature
T1 sequence (O43708 1-216): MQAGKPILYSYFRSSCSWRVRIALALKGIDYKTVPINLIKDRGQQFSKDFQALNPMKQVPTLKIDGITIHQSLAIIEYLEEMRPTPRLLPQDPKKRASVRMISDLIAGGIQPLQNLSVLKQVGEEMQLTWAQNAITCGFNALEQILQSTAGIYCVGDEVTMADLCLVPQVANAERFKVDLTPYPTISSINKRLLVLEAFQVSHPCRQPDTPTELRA
Method: The GSTZ1 activity assay with its substrate 4-Chloro-7-nitrobenzofurazan (CNBF) was read at 420 nm, which indicates the absorbance of CNBF-GSH adducts as previously reported^61. For experiments without UV irradiation, the reaction was started by adding DMSO or probe 17, 10 μg of recombinant GSTZ1 proteins, 0.2 mM of CNBF, and 2 mM of GSH at room temperature in a final volume of 100 μl HEPES buffer at pH 5.5. For UV irradiation experiments, GSTZ1 protein was incubated with DMSO or probe 17 for 10 minutes under UV light. Each reaction was performed as at least two biological replicates. Spectrophotometry measurements were recorded using an M5 Spectramax plate reader (Molecular devices). Data was processed and analyzed using Excel and GraphPad Prism 9.0. Optical density (OD) readouts of GSTZ1-catalyzed reactions were corrected by subtracting measurements of non-enzymatic reactions. Relative GSTZ1 activity was calculated by normalizing corrected OD readouts of GSTZ1-catalyzed reactions with probe 17 to that of GSTZ1-catalyzed reactions without probe 17. For assays with UV irradiation, recombinant GSTZ1 was produced in-house. To this end, 6His-GFP tag full length human GSTZ1 (Uniprot ID: 043708) with TEV protease cleavage site in pET28-a-(+) vector (GeneScript) was transformed into BL21 DE3 cells (Cat #EC0114, ThermoFisher). […]

[2] = test system: H1792 cells harboring KRAS G12C; experiment: Cell viability assay (CellTiter-Glo) in H1792 cells; assay type: cell-based, human; details: probe combined with sotorasib in H1792 cells, dose of 50 μM (FIG. 9D)
Method: as §1

[3] = test system: H520 cells harboring amplified FGFR1; experiment: Cell viability assay (CellTiter-Glo) in H520 cells; assay type: cell-based, human; details: probe combined with infigratinib in H520 cells, dose of 5 μM (FIG. 9E)
Method: as §1

C#CCCC1(CCC(=O)N2CCC(COc3nc4ccccc4nc3C)CC2)N=N1 [Probe 17, 3-(3-(but-3-yn-1-yl)-3H-diazirin-3-yl)-1-(4-(((3-methylquinoxalin-2-yl)oxy)methyl)piperidin-1-yl)propan-1-one]
sensitization of cells towards dasatinib [1]: significantly enhanced the sensitivity | GSTZ1 activity reduced by (GSTZ1): 68% | sensitization of cells towards sotorasib [2]: significantly enhanced the sensitivity | sensitization of cells towards infigratinib [3]: significantly enhanced the sensitivity
